Read-outs that look alike come from different tables or passages of the source.
What was measured:
HIV-1 IN = biological target: T1, HIV-1 IN (Human immunodeficiency virus type 1 group M subtype B, UniProt P12497); assay: In vitro IN inhibition assay (3’-processing and strand transfer); assay type: biochemical; settings: for IC50: Mn2+ cofactor (7.5 mM MnCl2)
T1 construct: pre-incubated with purified recombinant IN (at a final concentration of 200 nM); made in house
Protocol: (§1) All compounds were dissolved in DMSO to a final stock concentration of 10 mM and stored at −20 °C. Initial screening for IN inhibitory effect was done at 100 μM and dilutions were made in DMSO. Compounds showing at least 50% inhibition at 100 μM were selected for IC50 determinations. γ-[^32P]-ATP was purchased from Perkin Elmer (Waltham, MA, USA). The expression system for wild-type IN was a generous gift of Dr. Robert Craigie, Laboratory of Molecular Biology, NIDDK, NIH (Bethesda, MD, USA). His-tagged APE1 was purified from an expression system kindly provided by Dr. Tom Curran, Department of Developmental Neurobiology, St. Jude Children’s Research Hospital (Memphis, TN, USA).
(§2) 21-mer oligonucleotides used in IN inhibition assay [21top (5’-[…]-3’) and 21bot (5’-ACTGCTAGAGATTTTCCA CAC-3’)] were purchased from Integrated DNA Technologies (Coralville, IA, USA) and purified by UV shadowing on polyacrylamide gel. The oligonucleotides used in APE1 inhibition assay [top strand: 5′-ATTTCACCGGTACG(F)TCTAGAATC CG-3′ containing the tetrahydrofuran synthetic abasic residue (F), and bottom strand: 3′-TAAAGTGG CCATGC(C)AGATCTTAGGC-5′] were purchased from The Midland Certified Reagent Company (Midland, TX, USA). To analyze the extent of 3’-processing and strand transfer with 5’-end labeled substrates, 21top was 5’-end labeled using T4 polynucleotide kinase (Epicentre, Madison, WI, USA) and [γ-^32P]-ATP (Perkin Elmer, Waltham, MA, USA). The kinase was heat-inactivated at 95 °C and 21bot was added in […]. The reaction mixture was allowed to cool slowly to room temperature, and purified through a spin-25 minicolumn (USA Scientific, Ocala, FL, USA) to separate annealed double-stranded oligonucleotide from unincorporated material. The oligonucleotides used in the APE1 inhibition assay were labeled using a similar protocol.
To determine the extent of 3’-processing and strand transfer, the test compounds, diluted in DMSO, were pre-incubated with purified recombinant IN (at a final concentration of 200 nM) in the reaction buffer [50 mM NaCl, 1 mM HEPES (pH 7.5), 50 μM EDTA, 50 μM dithiothreitol, 10% glycerol (w/v), 7.5 mM MnCl2, 0.1 mg mL–1 bovine serum albumin, 10 mM 2-mercaptoethanol, 10% dimethyl sulfoxide, and 25 mM MOPS (pH 7.2)] at 30 °C for 30 min. For Mg^2+ assay, 7.5 mM MgCl2 was substituted for MnCl2 and an optimal concentration of PEG was included in the reaction buffer. Following the pre-incubation, 20 nM of the 5’-end ^32P-labeled linear oligonucleotide substrate was added to the reaction mixture and incubated for an additional 1 h. Reactions were quenched by addition of 50X loading dye (98% deionized formamide, 10 mM EDTA, 0.025% xylene cyanol, and 0.025 % bromophenol blue). An aliquot was subjected to electrophoresis on a denaturing polyacrylamide gel (0.09 M tris–borate, pH 8.3, 2 mM EDTA, 20% acrylamide, 8M urea). Gels were dried under vacuum, exposed in a PhosphorImager cassette and visualized with a Typhoon 8610 Variable Mode Imager (Amersham Biosciences). Quantification was done with Image Quant 5.2 software. Percent inhibition (%I) was calculated using the following equation: %I = 100 × [1 − (D − C) / (N − C)] where C, N, and D are the fractions of 21-mer substrate converted into 19-mer (product of 3’-processing) or strand-transfer products for DNA alone, DNA plus IN, and DNA, IN plus test compound, respectively. IC50 values were determined by plotting the logarithm of test compound concentrations as a function of %I to obtain the concentration that produced 50% inhibition.

[1] = biological target: T2, human apurinic/apyrimidinic endonuclease 1 (APE1) (Homo sapiens, UniProt P27695); assay: APE1 inhibition assay; assay type: biochemical; settings: read-out: Inhibition of APE1 catalytic activity IC50
T2 construct: His; made in house
Protocol: as §1, §2
APE1 inhibition assay was performed as previously described. To determine the extent of endonucleolytic cleavage of the abasic residue, the test compounds, diluted in DMSO, were preincubated with recombinant APE1 at a final concentration of 0.05 nM in the reaction buffer [50 mM NaCl, 1 mM HEPES, pH 7.5, 50 μM EDTA, 50 μM dithiothreitol, 10% glycerol (w/v), 7.5 mM MnCl2, 0.1 mg mL‑1 bovine serum albumin, 10 mM 2-mercaptoethanol, 10% DMSO, and 25 mM MOPS, pH 7.2] at 30 °C for 10 min. Following preincubation, 200 nM of the 5′-end ^32P-labeled linear oligonucleotide substrate was added, and incubated for an additional 10 minutes. Reactions were quenched by the addition of an equal volume (16 μL) of loading dye (98% deionized formamide, 10 mM EDTA, 0.025% xylene cyanol, and 0.025% bromophenol blue). An aliquot (5 μL) was electrophoresed on a denaturing 20% polyacrylamide gel (0.09 M tris-borate pH 8.3, 2 mM EDTA, 20% acrylamide, 8 M urea). The gels were dried, exposed in a PhosphorImager cassette and analyzed using a Typhoon 8610 Variable Mode Imager (Amersham Biosciences). Quantification of enzyme inhibition was done using Image Quant 5.2 software. The percent inhibition (% I) was calculated using the following equation: %I = 100 × [1 − (D − C) / (N − C)] where C, N, and D are the fractions of 26-mer substrate converted to 13-mer incision products (or integration products) for DNA alone, DNA plus APE1, and DNA, APE1 plus test compound, respectively. IC50 values were determined by plotting the logarithm of compound concentration as a function of %I to obtain the concentration that produced 50% inhibition. An optimum concentration of APE1 enzyme, at which there is complete conversion of the synthetic abasic-site containing oligonucleotide substrate to its cleaved product without subsequent exonuclease activity, was used in the assay.

[2] = read-out: Inhibition of IN catalytic activity IC50, 3’-Processing
[3] = read-out: Inhibition of IN catalytic activity IC50, Strand Transfer

T2 sequence (P27695 whole entry): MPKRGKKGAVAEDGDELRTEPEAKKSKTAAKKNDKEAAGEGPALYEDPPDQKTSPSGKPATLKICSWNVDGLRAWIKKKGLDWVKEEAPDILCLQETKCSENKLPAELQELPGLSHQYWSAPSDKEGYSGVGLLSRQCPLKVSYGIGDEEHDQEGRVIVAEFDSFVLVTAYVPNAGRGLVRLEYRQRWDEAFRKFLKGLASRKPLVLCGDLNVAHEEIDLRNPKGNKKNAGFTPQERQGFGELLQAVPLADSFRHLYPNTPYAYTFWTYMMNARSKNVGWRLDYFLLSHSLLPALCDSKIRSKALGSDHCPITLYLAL

COc1cc(NC(=O)C(=S)NN2C(=O)/C(=C\c3ccc(O)c(C(=O)O)c3)SC2=S)cc(OC)c1OC [Compound 35]
IC50 (HIV-1 IN; [2]): 45 ± 24 µM | IC50 (HIV-1 IN; [3]): 61 ± 11 µM | IN inhibition (in words) (HIV-1 IN; highest concentration tested 100 μM): only a moderate effect | melting point: 239 to 240 °C | IC50 [1]: > 100 µM

O=C(Nc1ccc(O)cc1)C(=S)NN1C(=O)C(=Cc2cccc([N+](=O)[O-])c2O)SC1=S [Compound 43, 2-{[5-(2-Hydroxy-3-nitrobenzylidene)-4-oxo-2-thioxo-1,3-thiazolidin-3-yl]amino}-N-(4-hydroxy-phenyl)-2-thioxoacetamide]
IC50 (HIV-1 IN; [2]): > 100 µM | IC50 (HIV-1 IN; [3]): 88 µM | melting point: 179 to 180 °C | IC50 [1]: > 100 µM

COc1ccc(NC(=O)C(=S)NN2C(=O)C(=Cc3ccc([N+](=O)[O-])o3)SC2=S)cc1OC [Compound 18, N-(3,4-dimethoxyphenyl)-2-{5-[(5-nitro-2-furyl)methylene]-4-oxo-2-thioxo-1,3-thiazolidin-3-yl}amino-2-thioxoacetamide]
IC50 (HIV-1 IN; [2]): 34 ± 10 µM | IC50 (HIV-1 IN; [3]): 14 ± 5 µM | melting point: 156 to 157 °C | IC50 [1]: > 100 µM

COc1cc(NC(=O)C(=S)NN2C(=O)C(=Cc3cc(Cl)ccc3O)SC2=S)cc(OC)c1OC [Compound 27, 2-{[5-(5-Chloro-2-hydroxybenzylidene)-4-oxo-2-thioxo-1,3-thiazolidin-3-yl]amino}-2-thioxo-N-(3,4,5-trimethoxyphenyl)acetamide]
IC50 (HIV-1 IN; [2]): 83 ± 25 µM | IC50 (HIV-1 IN; [3]): 20 µM | melting point: 216 to 217 °C | IC50 [1]: > 100 µM

COc1cc(NC(=O)C(=S)NN2C(=O)C(=Cc3cc(N=Nc4ccccc4)ccc3O)SC2=S)cc(OC)c1OC [Compound 34, 2-[(5-{2-Hydroxy-5-[phenyldiazenyl]benzylidene}-4-oxo-2-thioxo-1,3-thiazolidin-3-yl)amino]-2-thioxo-N-(3,4,5-trimethoxyphenyl)acetamide]
IC50 (HIV-1 IN; [2]): 33 ± 19 µM | IC50 (HIV-1 IN; [3]): 26 ± 14 µM | melting point: 149 to 150 °C | IC50 [1]: > 100 µM

COc1cc(NC(=O)C(=S)NN2C(=O)C(=Cc3ccc([N+](=O)[O-])o3)SC2=S)cc(OC)c1OC [Compound 19, 2-{5-[(5-Nitro-2-furyl)methylene]-4-oxo-2-thioxo-1,3-thiazolidin-3-yl}amino-2-thioxo-N-(3,4,5-tri-methoxyphenyl)acetamide]
IC50 (HIV-1 IN; [2]): 40 ± 28 µM | IC50 (HIV-1 IN; [3]): 25 ± 11 µM | melting point: 201 to 202 °C | IC50 [1]: > 100 µM

COc1cc(NC(=O)C(=S)NN2C(=O)C(=Cc3cc(I)cc(I)c3O)SC2=S)cc(OC)c1OC [Compound 39, 2-{[5-(2-Hydroxy-3,5-diiodobenzylidene)-4-oxo-2-thioxo-1,3-thiazolidin-3-yl]amino}-N-(3,4,5-trimethoxyphenyl)-2-thioxoacetamide]
decrease in potency relative to 53 (HIV-1 IN; IN inhibition, trimethoxy versus p-hydroxyl in ring A): 10 fold | IC50 (HIV-1 IN; [2]): 47 ± 20 µM | IC50 (HIV-1 IN; [3]): 31 ± 16 µM | melting point: 235 to 236 °C | IC50 [1]: > 100 µM

O=C(Nc1ccc(O)cc1)C(=S)NN1C(=O)C(=Cc2cc([N+](=O)[O-])ccc2O)SC1=S [Compound 44, 2-{[5-(2-Hydroxy-5-nitrobenzylidene)-4-oxo-2-thioxo-1,3-thiazolidin-3-yl]amino}-N-(4-hydroxy-phenyl)-2-thioxoacetamide]
IC50 (HIV-1 IN; [2]): 53 ± 8 µM | IC50 (HIV-1 IN; [3]): 45 ± 14 µM | melting point: 199 to 200 °C | IC50 [1]: > 100 µM

COc1cc(NC(=O)C(=S)NN2C(=O)C(=Cc3cc(Br)ccc3O)SC2=S)cc(OC)c1OC [Compound 28, 2-{[5-(5-Bromo-2-hydroxybenzylidene)-4-oxo-2-thioxo-1,3-thiazolidin-3-yl]amino}-2-thioxo-N-(3,4,5-trimethoxyphenyl)acetamide]
IC50 (HIV-1 IN; [2]): 44 ± 13 µM | IC50 (HIV-1 IN; [3]): 30 ± 19 µM | melting point: 208 to 209 °C | IC50 [1]: > 100 µM

COc1cc(NC(=O)C(=S)NN2C(=O)C(=Cc3cc([N+](=O)[O-])ccc3O)SC2=S)cc(OC)c1OC [Compound 30, 2-{[5-(2-Hydroxy-5-nitrobenzylidene)-4-oxo-2-thioxo-1,3-thiazolidin-3-yl]amino}-2-thioxo-N-(3,4,5-trimethoxyphenyl)acetamide]
IC50 (HIV-1 IN; [2]): 47 ± 30 µM | IC50 (HIV-1 IN; [3]): > 100 µM | melting point: 205 to 206 °C | IC50 [1]: > 100 µM

COc1cc(NC(=O)C(=S)NN2C(=O)C(=Cc3cc(Cl)cc(Cl)c3O)SC2=S)cc(OC)c1OC [Compound 36, 2-{[5-(3,5-Dichloro-2-hydroxybenzylidene)-4-oxo-2-thioxo-1,3-thiazolidin-3-yl]amino}-2-thioxo-N-(3,4,5-trimethoxyphenyl)acetamide]
IC50 (HIV-1 IN; [2]): 46 ± 5 µM | IC50 (HIV-1 IN; [3]): > 100 µM | melting point: 215 to 216 °C | IC50 [1]: > 100 µM

COc1ccc(NC(=O)C(=S)NN2C(=O)C(=Cc3ccc(Cl)cc3)SC2=S)cc1 [Compound 9, 2-{[5-(4-Chlorobenzylidene)-4-oxo-2-thioxo-1,3-thiazolidin-3-yl]amino}-N-(4-methoxyphenyl)-2-thioxoacetamide]
IC50 (HIV-1 IN; [2]): 33 µM | IC50 (HIV-1 IN; [3]): 33 µM | melting point: 186 to 187 °C | IC50 [1]: 47 ± 2 µM

COc1cc(C=C2SC(=S)N(NC(=S)C(=O)Nc3cccc(C(F)(F)F)c3)C2=O)cc(OC)c1OC [Compound 25, 2-{[4-Oxo-2-thioxo-5-(3,4,5-trimethoxybenzylidene)-1,3-thiazolidin-3-yl]amino}-2-thioxo-N-[3-(tri-fluoromethyl)phenyl]acetamide]
IC50 (HIV-1 IN; [2]): > 100 µM | IC50 (HIV-1 IN; [3]): > 100 µM | melting point: 160 to 161 °C | IC50 [1]: > 100 µM

Cc1ccc(C(=O)C=C2SC(=S)N(NC(=S)C(=O)Nc3ccccc3)C2=O)cc1 [Compound 11, 2-{5-[2-(4-Methylphenyl)-2-oxoethylidene]-4-oxo-2-thioxo-1,3-thiazolidin-3-yl}amino-N-phenyl-2-thioxoacetamide]
IC50 (HIV-1 IN; [2]): 58 ± 4 µM | IC50 (HIV-1 IN; [3]): 20 ± 6 µM | melting point: 147 to 148 °C | IC50 [1]: > 100 µM

— PMC6264390, “Design, Synthesis and Structure-activity Studies of Rhodanine Derivatives as HIV-1 Integrase Inhibitors” (Molecules, 2010)
